Assay results reported in patent US20140322252A1, “Peptides for Treating Alzheimers's Disease and Related Conditions” (priority 2013, published 2014).

How the values were obtained:
[1] = system: APPSwDI/NOS2−/− transgenic mouse; settings: 0.4 mg/kg p.o. once-a-day, 9 months of age, RAWM
Method: We tested yet a further all-D-amino acid modified peptide for oral bioavailability and protection to memory losses in an animal AD model.
Both Transgenic (CVN) and wild-type (WT) mice were used: WT mice were treated orally (p.o.) with vehicle; while CVN mice treated p.o. with either vehicle or treated p.o. with RAP-310, 0.4 mg/kg. At the age of 4.5 to 5 months the mice were subjected to once-a-day oral vehicle or RAP-310. After 1 month of treatment, starting at the age of 6 months, the mice were subjected to radial arm water maze testing.

CCR8 = biological target: T1, CCR8 (Homo sapiens, UniProt P51685); assay type: cell-based; settings: for inhibition of CCL1 (I-309) mediated chemotaxis / CCR8 function: M2 type monocyte derived macrophages, CCL1 1 nM
T1 construct: required maturation with M-CSF for 48 hrs to up-regulate expression of CCR8; endogenous in cells; host or cells: human monocytes isolated by Ficoll-Percoll gradient, matured with M-CSF for 48 hours (M2-type macrophages)
T1 sequence (P51685 whole entry): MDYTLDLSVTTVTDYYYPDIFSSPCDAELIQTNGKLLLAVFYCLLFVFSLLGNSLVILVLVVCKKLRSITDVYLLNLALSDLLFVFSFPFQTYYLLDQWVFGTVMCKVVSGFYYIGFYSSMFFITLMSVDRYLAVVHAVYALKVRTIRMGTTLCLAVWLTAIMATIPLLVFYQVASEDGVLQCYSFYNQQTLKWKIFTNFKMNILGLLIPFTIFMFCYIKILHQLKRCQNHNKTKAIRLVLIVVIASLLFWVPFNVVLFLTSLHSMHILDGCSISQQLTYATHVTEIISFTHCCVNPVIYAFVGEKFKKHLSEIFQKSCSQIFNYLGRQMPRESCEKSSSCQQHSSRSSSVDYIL
Method: Human monocytes isolated by Ficoll-Percoll gradient were cultured in complete growth medium (RPMI1640, supplemented with 10% FBS and 4 mM L-glutamine) in presence of M-CSF for 48 hours. Resting monocytes, as freshly isolated, were not responsive to CCL1, which required maturation with M-CSF for 48 hrs to up-regulate expression of CCR8, so-called “M2” type macrophages. […] The data represent the mean of triplicate determinations of a representative experiment.

[2] = system: cofilin-actin rods in hippocampal neurons
[3] = system: rats with partial ligation of the sciatic nerve; settings: cited from earlier work
CCR2 = CCR2 (Homo sapiens, UniProt P41597); settings: published, Padi 2012; cited from earlier work
CCR2, sequence (P41597 whole entry): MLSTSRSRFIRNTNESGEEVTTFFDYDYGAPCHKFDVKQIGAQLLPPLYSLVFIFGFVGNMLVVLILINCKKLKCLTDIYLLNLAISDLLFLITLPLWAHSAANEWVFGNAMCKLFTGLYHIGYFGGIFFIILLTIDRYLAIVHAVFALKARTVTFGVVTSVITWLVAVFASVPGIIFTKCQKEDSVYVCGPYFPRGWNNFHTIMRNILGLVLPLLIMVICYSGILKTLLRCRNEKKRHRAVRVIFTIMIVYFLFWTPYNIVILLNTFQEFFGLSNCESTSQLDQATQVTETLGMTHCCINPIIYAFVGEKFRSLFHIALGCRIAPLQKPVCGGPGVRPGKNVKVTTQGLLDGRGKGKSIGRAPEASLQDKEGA

[4] = Pharmacokinetic study of RAP-103 in male Sprague Dawley rat, LC-MS/MS; assay type: in vivo
Method: A pharmacokinetic study of all-D-TTNYT (SEQ ID NO:2) (RAP-103) following intravenous and oral administration was conducted at a target dose level of 1 mg/kg in the male Sprague Dawley rat. The concentration of RAP-103 in each plasma and brain sample was measured using a suitable LC-MS/MS assay. The assay used was a research grade assay (RGA-1) which was established by assessing the accuracy, precision and the linearity of the method. Plasma concentrations generated were used to evaluate the pharmacokinetic parameters of all-D-TTNYT (SEQ ID NO:2) (RAP-103).
The dose formulation was administered intravenously to some animals as a slow bolus over ca 30 s via the tail vein and to a different group of animals orally via gastric gavage at a target dose volume of 1 mL/kg, to achieve a target dose level of 1 mg/kg. The dose volume administered was calculated according to the bodyweight of the animal on the day of dosing. The weight of administered dose was recorded. […] Results of the study show oral boavailibity of the all-D-peptide was achieved, results are in Table 1

[5] = system: NBM lesioned aged Sprague-Dawley rats; settings: bilateral NBM lesions, 1 mg IP daily for 5 months; cited from earlier work
[6] = system: CCL2 (MCP-1) chemotaxis of human monocytes; assay: CCL2-mediated human monocyte chemotaxis (FIG. 1); assay type: cell-based; settings: FIG. 1, direct comparison among all RAPs
From the text: Triplicate determinations were made and results are expressed as the mean plus or minus SEM. The experiment shown is a direct comparison among all RAPs. Statistical analysis was by unpaired t-test, with significance set at the p<0.01 (*) level for difference from CCL2 only chemotaxis.

LPS-infused rats = settings: 0.01 mg/kg, s.c., 14 days, cited from earlier work

## C[C@H](O)[C@@H](NC(=O)[C@@H](Cc1ccc(O)cc1)NC(=O)[C@@H](CC(N)=O)NC(=O)[C@H](NC(=O)[C@H](NC(=O)[C@H](NC(=O)[C@@H](CO)NC(=O)[C@@H](C)N)[C@H](C)O)[C@H](C)O)[C@H](C)O)C(=O)O [RAP-310]
[1]
  less errors in block 5 compared to CVN vehicle treated mice: 50%
  less errors in sum scores for Day 1 compared to CVN vehicle treated mice: 30%
CCR8; FIG. 3
  potency to block CCR8 compared with DAPTA: comparable potency
CCR8
  inhibition of CCL1 (I-309) mediated chemotaxis / CCR8 function: Inhibit
[2]
  EC50: ~0.1 pM
  block of TNFα caused cofilin-actin rod stress response: comparably blocked

## C[C@H](O)[C@@H](N)C(=O)N[C@@H](C(=O)N[C@H](CC(N)=O)C(=O)N[C@H](Cc1ccc(O)cc1)C(=O)N[C@@H](C(=O)O)[C@H](C)O)[C@H](C)O [RAP-103, All-D-TTNYT]
[3]; 0.2-1 mg/kg, days 8 to 12
  already established hypersensitivity: reverses
[3]; oral 0.05-1 mg/kg for 7 days
  development of thermal hyperalgesia: inhibits
  mechanical allodynia: fully prevents
[3]; peripheral nerve injury
  spinal microglial activation and monocyte infiltration: reduce
CCR2
  activity to block MCP-1 human monocyte chemotaxis: block
[4]; intravenous, 1 mg/kg, nominal time 0.5 h, individual animals
  concentration in male rat plasma: 561 ng/mL
[4]; rat, 1 mg/kg
  time of peak plasma levels: 10 to 15 min
[4]; rat, 5 minutes (0.083 hrs) after dosing, continues at 1 hr
  detection in plasma: detected

## D-ala1-STTTNYT-NH2 [DAPTA]
[5]
  lesion-induced decreases in cortical thickness: prevented or attenuated
  loss of large neurons in layer V: attenuated
CCR8
  inhibition of CCL1 (I-309) mediated chemotaxis / CCR8 function: Inhibit
[6]
  potency to block CCL2 (MCP-1) chemotaxis: most potent
[6]; listed as RAP-101
  potency to block CCL2 (MCP-1) chemotaxis: greater potency
LPS-infused rats; vs vehicle
  number of activated microglia and astrocytes: dramatically reduced
LPS-infused rats
  number of immunoreactive cells expressing NfKb: reduced
